The record followed here is US8680113B2, “BMI-1 protein expression modulators” (PTC Therapeutics, Inc., priority 2008, dated 2014).

Where only a bound is given, the exact number is not on record here.

The assay relates to Bmi-1. The assay can be described thus: Sandwich ELISA Assay (Bmi-1 ELISA in HT-1080 cells). The assay is classed as cell-based, human. In short, it runs like this:
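Lysate Bmi-1 was quantified against a recombinant GST-Bmi-1 standard (0-8000 pg/mL) by sandwich ELISA read at OD450 with OD570 reference. The ELISA used mouse monoclonal capture, rabbit anti-Bmi-1, HRP anti-rabbit IgG and TMB. Before lysis, HT-1080 cells seeded at 8000/well were exposed to compounds for 40-48 h at 37°C with 0.5% final DMSO.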
The IC50 is the concentration at which inhibition is half-maximal. Read a high IC50 as weaker potency. Compound `Clc1ccccc1Nc1nccc(-c2cnc3ccccn23)n1` [Cpd 247, N-(2-chlorophenyl)-4-(imidazo[1,2-a]pyridin-3-yl)pyrimidin-2-amine] displayed an IC50 of 0.5 to 1 µM. Consider `Fc1ccc(Nc2nccc(-c3cnc4ccccn34)n2)cc1` [Cpd 248, N-(4-fluorophenyl)-4-(imidazo[1,2-a]pyridin-3-yl)pyrimidin-2-amine], for which the IC50 was less than 0.5 µM.

Regarding `COc1cc(Br)c(Nc2nccc(-c3cnc4ccccn34)n2)c(Br)c1` [Cpd 249, N-(2,6-dibromo-4-methoxyphenyl)-4-(imidazo[1,2-a]pyridin-3-yl)pyrimidin-2-amine], the IC50 was less than 0.5 µM.

In the case of `CC(=O)c1ccc(Nc2nccc(-c3cnc4ccccn34)n2)cc1` [Cpd 250, 1-(4-{[4-(imidazo[1,2-a]pyridin-3-yl)pyrimidin-2-yl]amino}phenyl)ethanone], the IC50 is less than 0.5 µM. In the case of `c1ccn2c(-c3ccnc(Nc4ccc5c(c4)OCO5)n3)cnc2c1` [Cpd 251, N-(1,3-benzodioxol-5-yl)-4-(imidazo[1,2-a]pyridin-3-yl)pyrimidin-2-amine] it was less than 0.5 µM; in that of `CCOc1ccc(Nc2nccc(-c3cnc4ccccn34)n2)cc1` [Cpd 252, N-(4-ethoxyphenyl)-4-(imidazo[1,2-a]pyridin-3-yl)pyrimidin-2-amine], less than 0.5 µM. In the case of `CCN(CC)c1ccc(Nc2nccc(-c3cnc4ccccn34)n2)cc1` [Cpd 253, N,N-diethyl-N′-[4-(imidazo[1,2-a]pyridin-3-yl)pyrimidin-2-yl]benzene-1,4-diamine] it was less than 0.5 µM; in that of `CN(C)c1ccc(Nc2nccc(-c3cnc4ccccn34)n2)cc1` [Cpd 254, N′-[4-(imidazo[1,2-a]pyridin-3-yl)pyrimidin-2-yl]-N,N-dimethylbenzene-1,4-diamine], less than 0.5 µM. As for `Fc1cccc(Nc2nccc(-c3cnc4ccccn34)n2)c1` [Cpd 255, N-(3-fluorophenyl)-4-(imidazo[1,2-a]pyridin-3-yl)pyrimidin-2-amine], the figure is less than 0.5 µM. `Brc1cccc(Nc2nccc(-c3cnc4ccccn34)n2)c1` [Cpd 256, N-(3-bromophenyl)-4-(imidazo[1,2-a]pyridin-3-yl)pyrimidin-2-amine]: the IC50 was less than 0.5 µM. As for `COc1cc(Br)c(Nc2nccc(-c3cnc4ncccn34)n2)c(Br)c1` [Cpd 257, N-(2,6-dibromo-4-methoxyphenyl)-4-(imidazo[1,2-a]pyrimidin-3-yl)pyrimidin-2-amine], the figure is less than 0.5 µM; as for `c1cnc2ncc(-c3ccnc(Nc4ccc5c(c4)OCO5)n3)n2c1` [Cpd 259, N-(1,3-benzodioxol-5-yl)-4-(imidazo[1,2-a]pyrimidin-3-yl)pyrimidin-2-amine], less than 0.5 µM. As for `COc1cccc(Nc2nccc(-c3cnc4ncccn34)n2)c1` [Cpd 260, 4-(imidazo[1,2-a]pyrimidin-3-yl)-N-(3-methoxyphenyl)pyrimidin-2-amine], the figure is less than 0.5 µM; as for `COc1ccc(Nc2nccc(-c3cnc4ncccn34)n2)cc1` [Cpd 261, 4-(imidazo[1,2-a]pyrimidin-3-yl)-N-(4-methoxyphenyl)pyrimidin-2-amine], less than 0.5 µM. In the case of `CCOc1ccc(Nc2nccc(-c3cnc4ncccn34)n2)cc1` [Cpd 262, N-(4-ethoxyphenyl)-4-(imidazo[1,2-a]pyrimidin-3-yl)pyrimidin-2-amine] it was less than 0.5 µM. On to `CCN(CC)c1ccc(Nc2nccc(-c3cnc4ncccn34)n2)cc1` [Cpd 263, N,N-diethyl-N′-[4-(imidazo[1,2-a]pyrimidin-3-yl)pyrimidin-2-yl]benzene-1,4-diamine], for which the half-maximal inhibitory concentration (IC50) is less than 0.5 µM. As for `CN(C)c1cccc(Nc2nccc(-c3cnc4ncccn34)n2)c1` [Cpd 264, N′-[4-(imidazo[1,2-a]pyrimidin-3-yl)pyrimidin-2-yl]-N,N-dimethylbenzene-1,3-diamine], the figure is less than 0.5 µM; as for `CN(C)c1ccc(Nc2nccc(-c3cnc4ncccn34)n2)cc1` [Cpd 265, N′-[4-(imidazo[1,2-a]pyrimidin-3-yl)pyrimidin-2-yl]-N,N-dimethylbenzene-1,4-diamine], 0.5 to 1 µM.

`Fc1ccccc1Nc1nccc(-c2cnc3ncccn23)n1` [Cpd 266, N-(2-fluorophenyl)-4-(imidazo[1,2-a]pyrimidin-3-yl)pyrimidin-2-amine] returned an IC50 of less than 0.5 µM.

`Fc1cccc(Nc2nccc(-c3cnc4ncccn34)n2)c1` [Cpd 267, N-(3-fluorophenyl)-4-(imidazo[1,2-a]pyrimidin-3-yl)pyrimidin-2-amine] returned an IC50 of less than 0.5 µM.

`Fc1ccc(Nc2nccc(-c3cnc4ncccn34)n2)cc1` [Cpd 268, N-(4-fluorophenyl)-4-(imidazo[1,2-a]pyrimidin-3-yl)pyrimidin-2-amine] came in with an IC50 of less than 0.5 µM. In the case of `Clc1cccc(Nc2nccc(-c3cnc4ncccn34)n2)c1` [Cpd 269, N-(3-chlorophenyl)-4-(imidazo[1,2-a]pyrimidin-3-yl)pyrimidin-2-amine] it was less than 0.5 µM. In turn, `Brc1ccc(Nc2nccc(-c3cnc4ncccn34)n2)cc1` [Cpd 270, N-(4-bromophenyl)-4-(imidazo[1,2-a]pyrimidin-3-yl)pyrimidin-2-amine] registered an IC50 of less than 0.5 µM. In the case of `CCc1nc2ncccn2c1-c1ccnc(Nc2ccc(Br)cc2)n1` [Cpd 271, N-(4-bromophenyl)-4-(2-ethylimidazo[1,2-a]pyrimidin-3-yl)pyrimidin-2-amine] it was less than 0.5 µM; in that of “N-(4-ethoxyphenyl)-4-(2-methylimidazo[1,2-a]pyridin-3-yl)pyrimidin-2-amine [Cpd 128]”, less than 0.5 µM.
